Consider five compounds from paper PMC8143291, “Cytotoxicity and Microbicidal Activity of Commonly Used Organic Solvents: A Comparative Study and Application to a Standardized Extract from Vaccinium macrocarpon” (Toxics, 2021).

Where “and” joins values, the source holds several entries; their conditions need not be identical. Equal values may be shown once. A value given as a limit tells only on which side of the number the result lay.

Data set [1] has as its system E. coli ATCC 35218. The data set is described as follows: Dehydrogenase activity (DEHA) MTT test after BMD. The data set is classed as cell-based, Escherichia coli. The note with it: in MHB; 24 h exposure; % against untreated control; ± SD; n = 3. As for the experimental part:
(§1) The cell dehydrogenase (DEHA, redox, metabolic) activity of all samples was measured at the end of the BMD assay, based on reducing the MTT dye to formazan by the membrane located bacterial enzyme NADH: ubiquinone reductase (H^+-translocation). The protocol of Wang et al. was applied after minor modifications. Briefly, each sample was incubated for 120 min at 37 °C with MTT at a final concentration of 0.5 mg/mL in the culture medium. The resulting non-soluble violet formazan crystals were dissolved with an equal volume of 2-propanol supplemented with 5% formic acid. The absorbance was measured at 550 nm against a blank solution containing the respective volumes of MHB and MTT.
(§2) The IC50 values from the MTT assay were evaluated with a non-linear regression analysis (Curve fit, GraphPad Prizm 6.01 software, GraphPad Software Inc., San Diego, CA, USA) using sigmoidal concentration–response curves. The cell viability is presented as a percentage of the untreated control. […] The maximum tolerated concentration (MTC) for the cell lines was determined from three independent assays according to ISO 10993-5 as the maximum concentration at which at least 70% of the cells were viable (nonlin fit, range, GraphPad Prizm 6.01 software) GraphPad Software Inc., San Diego, CA, USA). […] The respiratory activity of the bacterial cultures was calculated as a percentage against the untreated control.

The subject of data set [2] is E. faecalis ATCC 29212. Kind of data set: Broth microdilution MIC/MBC. The data set is classed as cell-based, Enterococcus faecalis. The note with it: 24 h exposure; v/v; n = 3. From the text:
(§3) The bacterial strains used for AST of the solvents included: Staphylococcus aureus (ATCC 29213), Staphylococcus aureus—MRSA (NBIMCC 8327—resistant to methicillin and oxacillin, National Bulgarian Collection for Industrial Microorganisms and Cell Cultures, Sofia, Bulgaria), Streptococcus pyogenes (SAIMC 10535, Collection of the Stephan Angeloff Institute of Microbiology, Sofia, Bulgaria), Enterococcus faecalis (ATCC 29212), Escherichia coli (ATCC 35218), Pseudomonas aeruginosa (ATCC 27853), and Yersinia enterocolitica (IP864 O:3, Collection of Institut Pasteur, Paris, France). The selected strains are the most often investigated ones in the AST research studies in correspondence with the standard ISO 20776-1 Part 1: Reference method for testing the in vitro activity of antimicrobial agents against rapidly growing aerobic bacteria involved in infectious diseases. The antimycotic activity was tested on Candida albicans (CBS 562, Utrecht, The Netherlands). The strains S. aureus, MRSA, E. coli and E. faecalis were grown on Mueller–Hinton broth/agar (MHB/MHA); S. pyogenes, P. aeruginosa, Y. enterocolitica and C. albicans were grown on brain heart infusion (BHI) broth/agar; E. coli was also grown on Luria–Bertani broth/agar (LBB/LBA).
(§4) The minimum inhibitory concentration (MIC) for each solvent was estimated by the broth microdilution method (BMD) in 96-well microplates, following ISO 20776/1-2006 [3] and CLSI protocols. Briefly, a standardized bacterial inoculum was prepared from each bacterial species by suspending 3–4 colonies from a pure culture into 4 mL sterile saline. The turbidity of the inocula was adjusted to McFarland 0.5 (1.0 × 10^8 CFU/mL, λ = 600 nm), and 50 µL were resuspended in 10 mL of the appropriate culture medium for each strain. The bacterial inocula were added to microtiter trays containing equivalent volumes of medium loaded with the relevant solvent in concentrations varying from 0.025 to 25% volume fraction. The final volume of each sample was 100 µL/well. The plates were incubated at 37 °C for 24 h. The pure culture medium served as a negative control. Every MIC was evaluated visually as the lowest concentration without visible growth. […] MBC was defined as the lowest compound’s concentration reducing the colony growth of the initial bacterial inoculum by ≥ 99.9%.
On the technique in general: In broth dilution the organism is exposed to a series of concentrations in liquid medium.

In data set [3] the test system is Y. enterocolitica IP 864 O: 3. Kind of data set: Dehydrogenase activity (DEHA) MTT test after BMD. Format: cell-based, Yersinia enterocolitica. Particulars: 24 h exposure; % against untreated control; ± SD; n = 3. Here is the method: as §1
The IC50 values from the MTT assay were evaluated with a non-linear regression analysis (Curve fit, GraphPad Prizm 6.01 software, GraphPad Software Inc., San Diego, CA, USA) using sigmoidal concentration–response curves. The cell viability is presented as a percentage of the untreated control. At least four wells were seeded for every concentration. Three independent assays were performed (n = 3). The maximum tolerated concentration (MTC) for the cell lines was determined from three independent assays according to ISO 10993-5 as the maximum concentration at which at least 70% of the cells were viable (nonlin fit, range, GraphPad Prizm 6.01 software) GraphPad Software Inc., San Diego, CA, USA). To compare the MTC values of the solvents for each cell line, the ordinary One-way ANOVA statistical analysis based on Tukey’s multiple comparisons test with a single pooled variance (GraphPad Prizm 6.01 software) GraphPad Software Inc., San Diego, CA, USA) was utilized, and p ≤ 0.05 was set as a significance level. The respiratory activity of the bacterial cultures was calculated as a percentage against the untreated control.

The conditions of data set [4]: no reference given; cited from earlier work.
Data set [5] has as its system Candida Albicans SAIMC 562. The data set is described as follows: Dehydrogenase activity (DEHA) MTT test after BMD. The note with it: 24 h exposure; % active cells against untreated control; ± SD; n = 3. The data set is classed as cell-based. Here is the method:
as §1, §2
On the technique in general: Tetrazolium dyes change colour on reduction, which living cells bring about.

Data set [6] relates to S. Aureus ATCC 29213. The data set is described as follows: Dehydrogenase activity (DEHA) MTT test after BMD. Particulars: 24 h exposure; % against untreated control; ± SD; n = 3. The data set is classed as cell-based, Staphylococcus aureus. As for the experimental part:
as §1
(§5) The cell viability is presented as a percentage of the untreated control. At least four wells were seeded for every concentration. Three independent assays were performed (n = 3). […] The respiratory activity of the bacterial cultures was calculated as a percentage against the untreated control.

Data set [7] concerns S. pyogenes SAIMC 10535. Kind of data set: Dehydrogenase activity (DEHA) MTT test after BMD. Format: cell-based, Streptococcus pyogenes. Particulars: 24 h exposure; % against untreated control; ± SD; n = 3. As for the experimental part: as §1, §5
Data set [8] relates to S. pyogenes SAIMC 10535. Kind of data set: Broth microdilution MIC/MBC. Format: cell-based, Streptococcus pyogenes. The note with it: 24 h exposure; v/v; n = 3.
From the text: as §3, §4

Data set [9] has as its system Y. enterocolitica IP 864 O: 3. The data set is described as follows: Broth microdilution MIC/MBC. Particulars: 24 h exposure; v/v; n = 3. Format: cell-based, Yersinia enterocolitica.
From the text: as §3, §4

Data set [10] relates to E. coli ATCC 35218. The data set is described as follows: Broth microdilution MIC/MBC. The data set is classed as cell-based, Escherichia coli. The note with it: 24 h exposure, v/v, n = 3.
From the text: as §3, §4

Data set [11] relates to S. Aureus MRSA NBIMCC 8327. The data set is described as follows: Broth microdilution MIC/MBC. Format: cell-based, Staphylococcus aureus. Particulars: 24 h exposure; v/v; n = 3.
From the text: as §3, §4

In data set [12] the test system is S. Aureus ATCC 29213. The data set is described as follows: Broth microdilution MIC/MBC. Format: cell-based, Staphylococcus aureus. The note with it: 24 h exposure; v/v; n = 3.
From the text: as §3, §4

Data set [13] has as its system P. aeruginosa ATCC 27853. The data set is described as follows: Broth microdilution MIC/MBC. The note with it: 24 h exposure; v/v; n = 3. Format: cell-based, Pseudomonas aeruginosa.
From the text: as §3, §4

Data set [14] relates to P. aeruginosa ATCC 27853. The data set is described as follows: Dehydrogenase activity (DEHA) MTT test after BMD. Format: cell-based, Pseudomonas aeruginosa. The note with it: 24 h exposure; % against untreated control; ± SD; n = 3. Here is the method: as §1, §5
Data set [15] has as its system E. faecalis ATCC 29212. Kind of data set: Dehydrogenase activity (DEHA) MTT test after BMD. Format: cell-based, Enterococcus faecalis. The note with it: 24 h exposure; % against untreated control; ± SD; n = 3. Here is the method:
as §1, §5

Data set [16] relates to Candida Albicans SAIMC 562. Kind of data set: Broth microdilution MIC/MBC. Format: cell-based. Particulars: 24 h exposure; v/v; n = 3.
From the text: as §3, with “The antimycotic activity was tested on Candida albicans (CBS 562, Utrecht, The Netherlands).” left out
as §4

Data set [17] concerns Chinese hamster liver cell line. The note with it: cited from earlier work.
Data set [18] has as its system breast cancer, mouse macrophage and human umbilical vein endothelial cells. Further details: method as in doi:10.17795/ajmb-33453. The note with it: cited from earlier work.
For data set [19], the system named is S. epidermidis. Further details: method as in doi:10.5580/b43. The note with it: in the presence of 6% solvent; cited from earlier work.

In the case of `COCCO` [MEtOH, 2-methoxyethanol], the “DEHA (dehydrogenase activity)” value in data set [1] is on record as 5.86 ± 0.005%; in [3] it was 11.76 ± 0.004%; in [5] it was 77.41 ± 0.03%; in data set [6] it was 10.27 ± 0.01%; in data set [7] it was 28.02 ± 0.02%; in data set [14], 20.23 ± 0.06%. For the same compound, in [15], the “DEHA (dehydrogenase activity)” value worked out at 25.60 ± 0.04%. In addition, the MBC in data set [2] is greater than 25%; in [8], greater than 25%; in [9], 25%; in [10] (in LBB), 12.5%; in [10] (in MHB), 25%; in [11], 25%. Also, the MBC in data set [12] was greater than 25%; in data set [13], 25%; in [16] it was 12.5%. For the same compound, the MIC in data set [2] came to 12.5%; in data set [8], 12.5%; in data set [9], 12.5%; in data set [10] (in LBB), 12.5%; in data set [10] (in MHB), 12.5%; in [11], 25%. For the same compound, the MIC in data set [12] is 25%; in data set [13], 6.25%; in data set [16], 6.25%. For the same compound, the “Experimental logP” value in [4] is listed as −0.77.

PEG-200: the clastogenic concentrations in [17] is 5 to 7 mM.

In the case of `CC(C)=O` [acetone], in data set [18], the “maximum tolerated concentration (MTC) / applicable concentration” value is “up to 0.5 % v/v”.

Consider `COCCOC` [DME, 1,2-dimethoxyethane], for which the MBC in data set [2] is 12.5%; in data set [8] it was greater than 25%; in [9], 6.25%; in data set [10] (in LBB), 6.25%; in data set [10] (in MHB), 12.5%; in [11], 3.125%. Further, the MBC in [12] stood at 12.5%; in data set [13], 12.5%; in data set [16] it was 25%. Moreover, the MIC in data set [2] is reported as 12.5%; in data set [8] it was 6.25%; in data set [9] it was 3.125%; in [10] (in LBB), 3.125%; in data set [10] (in MHB) it was 12.5%; in data set [11], 3.125%. The results for the MIC in data set [12], in [13] and in data set [16] were 6.25%, 12.5% and 12.5%, respectively. Besides, the “DEHA (dehydrogenase activity)” value in [3] was 49.04 ± 0.005%; in [5] it was 31.23% and 31.23 ± 0.01%; in [6], 12.54 ± 0.03%; in data set [7] it was 31.32 ± 0.05%. Further, the “Experimental logP” value in data set [4] was −0.21.

As for `CO` [MeOH, methanol], the MBC in data set [2], in [8], in data set [9], in data set [10] (in LBB), in data set [10] (in MHB) and in data set [11] was greater than 25% in each case. In addition, the MBC in data set [12], in data set [13] and in data set [16] was greater than 25% each time. The MIC in data set [2], in [8], in data set [9], in [10] (in LBB), in data set [10] (in MHB) and in [11] was greater than 25% each time. For the same compound, the MIC in [12], in [13] and in data set [16] was greater than 25% in each case. Besides, the survival in data set [19] is given as 26%. In addition, the “Experimental logP” value in data set [4] was −0.77.
